Data reported in patent US20100210649A1, “PYRIDAZINONES AND FURAN-CONTAINING COMPOUNDS” (Sloan-Kettering Institute for Cancer Research, priority 2006, published 2010).
Read-outs that look alike come from different tables or passages of the source.

How the values were obtained:
H1975 = assay: Non Small Cell Lung Cancer proliferation assay (Alamar Blue reduction), H1975; format: cell-based, human; conditions: for inhibition at 10 µM: NCI-H1975, primary screening
Procedure, shortened: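 Compounds are tested at 1% DMSO final concentration against adherent NSCLC cells for 48 h at 37° C, with cytotoxicity measured by Alamar Blue reduction after a further 48 h incubation.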

H1118 = assay: Non Small Cell Lung Cancer proliferation assay (Alamar Blue reduction), H1118; format: cell-based
Description: (§1) Non Small Cell Lung Cancer Proliferation Assay. To perform the assay, the Non Small Cell Lung Cancer lines are diluted in media and plated into 384 well microplates at a final density of 250 cells in […]. To ensure consistency and minimal pipetting error, the cells are plated using the Multidrop 384 with the following settings: Rocker Switch set at 384, Volume 45 and Column 24.
(§2) Low Controls for this assay are made by treating Non Small Cell Lung Cancer cells with 5 ul of staurosporine at 250 uM in 10% DMSO and 1% SDS. [Final concentration in this assay is 25 uM staurosporine in 1% DMSO and 0.1% SDS.]
(§3) High Controls for this assay are made by treating Non Small Cell Lung Cancer cells with 5 ul of 10% DMSO. [Final concentration in this assay is 1% DMSO].
(§4) The remaining wells of the 384 microplate may be treated with different compounds depending on the study. Important Note: All compounds for testing in this assay should be done at the final concentration of 1% DMSO.
(§5) After addition, the cells are placed in cell culture incubator at 37° C. for 48 hours for complete treatment.
(§6) After drug treatment, cytotoxicity is measured by Alamar Blue reduction. 5 μL of Alamar Blue is added to the 384 microplates using the Flexdrop.
(§7) The cells are incubated for 48 hours at 37° C. to complete the Alamar Blue reduction.
(§8) The final step in the assay is to measure the amount of Alamar Blue reduction. […] The Alamar Blue fluorescence is measured at an excitation of 530 nm and emission of 590 nm.
(§9) For the NSCLC project, the cell based assay was screened against a small molecule library of approximately 200,000 compounds. The compound library is stored in our automated robotic freezer (Biophile) at −20° C. in 100% DMSO. Compound freeze and thaw cycles are kept to a minimum. Compounds for use are diluted into the appropriate concentration and plated into 384 well microplates using our custom built low volume 384-well head tool (TPS 384, Apricot Designs Inc., CA, USA). This assay was performed on a fully automated linear track robotic platform (CRS F3 Robot System, Thermo Electron Corp., Ontario, Canada) utilizing several integrated peripherals for plate handling, liquid dispensing, and readout detection. First, non-small cell lung cancer cell lines are dispensed into 384 well microplates (Corning #3712 Tissue Culture Treated Plate, Corning, N.Y., USA) with 5 μL of test compounds at 100 uM in 10% DMSO for screening studies or […] in 10% DMSO to 50 nM in 10% DMSO for dose response studies. The microplates are then placed at 37° C. for 48 hours to complete treatment of cells with compounds. Next, 5 ul of alamar blue was added using a liquid dispenser (Flexprop Precision Dispenser, Perkin Elmer, Mass., USA) and incubated for 48 hours at 37° C. The alamar blue prompt fluorescence was measured on Victor V (Victor^3 V, Perkin Elmer, Mass., USA) and output data files were loaded into ORIS (Oncology Research Informatics System, MSKCC, NY, USA), a screening data acquisition and analysis platform.
The dose response studies were done with the following standard procedure. First, the cells were counted and dispensed at 250 cells/well into 384-well microplates with compound. The cells were incubated for 48 hours at 37 C to complete treatment, and then alamar blue was added for an additional 48 hours. Finally, alamar blue reduction was measured and the data was loaded into ORIS, our data screening acquisition platform.

H827 = assay: Non Small Cell Lung Cancer proliferation assay (Alamar Blue reduction), H827; format: cell-based
Description: […] are grown and maintained in Corning 175 cm2 flasks in RPMI 1640 media supplemented with 10% FBS, 1% antibiotic solution, 1% additional glutamine and pyruvate. These cells have a doubling time of 1-2 days. All cell types are adherent and grow in colonies. The cells should be kept at a density between 50,000 cells/mL -500,000 cells/mL to provide for optimum growth and adequate nutrition. The cell line should be maintained at 37° C. in a humidified atmosphere with 5% CO2 in a sterile cell culture incubator.
as §1, §2, §3, §4, §5, §6, §7, §8, §9

in vitro = conditions: human
Description: NHBE (normal human bronchiolar epithelial cells) are primary cells obtained from donor lungs and commercially available from Cambrex. The HPL1D (human peripheral lung epithelial) cell line has been immortalized with the SV40 large T-antigen. WI-38: human lung fibroblast cell line. HPLID, NHBE and WI-38 cells will serve as controls in the chemical screens. WT: wildtype; WT*: over-expressed wildtype.
Compounds were tested in dose response studies from […] to 5 nM against several non small cell lung cancer lines: H358, H827, H1118, H1650, H1734, H1975, H2030, and H3255, and were also studied in a 72 hour cytotoxicity assay against the NHBE and WI-38 cell lines.

[1] = Homo sapiens, NCI-H1975, 48 h, H1975, 12 point doubling dilution 10 uM to 5 nM, 48 h treatment, alamar blue additional 48 h, read-out: IC50 H1975
[2] = Homo sapiens; H1118; 12 point doubling dilution 10 uM to 5 nM; 48 h treatment, alamar blue additional 48 h; read-out: IC50 H1118
[3] = Homo sapiens, 10 μM compound in 1% DMSO (v/v), read-out: percentage inhibition H1975
[4] = Homo sapiens, read-out: Dose Response (uM) H827
[5] = Homo sapiens, 48 h, read-out: IC50 H1118
[6] = Homo sapiens, read-out: Dose Response (uM) H1118
[7] = Homo sapiens, NCI-H1975, dose response 10 M to 5 nM, IC50, read-out: Dose Response (uM) H1975
[8] = Homo sapiens; read-out: Dose Response (uM) H827
[9] = Homo sapiens; read-out: Dose Response (uM) H1118

Compound | IC50 (H1975; [1]) [µM] | IC50 (H1975; Homo sapiens, NCI-H1975, phenylfuran-2-carboxamide SAR summary, read-out: IC50(uM) 1975) [µM] | IC50 (H1118; [2]) [µM] | IC50 (H1975; [7]) [µM] | IC50 (H827; [8]) [µM] | IC50 (H1118; [9]) [µM] | inhibition at 10 µM (H1975; Homo sapiens, H1975, 10 μM compound in 1% DMSO (v/v), read-out: PRIMARY HTS [%] H1975 (percentage inhibition)) [%] | CONFIRMATION [%] 1975 (H1975; percentage inhibition, 10 μM compound in 1% DMSO (v/v)) [%] | inhibition at 10 µM (H1975; [3]) [%] | IC50 (H1975; dose response 10 M to 5 nM, IC50, read-out: Dose Response (uM) H1975) [µM] | IC50 (H827; [4]) [µM] | IC50 (H1118; [5]) [µM] | IC50 (H1118; [6]) [µM] | IC50 at 72 h (in vitro; CytoTox (uM) NHBE) [µM] | IC50 at 72 h (in vitro; CytoTox (uM) WI-38) [µM]
O=C(Nc1ccc(F)c(Cl)c1)c1ccc([N+](=O)[O-])o1 [compound 87200] | > 10 | 0.44 | 4.33 |  |  |  | 67 | 95 |  |  |  |  |  |  | 
Cc1cccc(-n2ncc(Cl)c(Cl)c2=O)c1 [compound 104122, 4,5-dichloro-2-m-tolyl-2H-pyridazin-3-one] | 0.29 |  |  |  |  |  |  |  | 104 | 0.14 | 0.09 | 0.34 | 0.11 |  | 
O=c1c(Cl)c(Cl)cnn1-c1cccc(C(F)(F)F)c1 [compound 176729] | 0.31 |  | 0.31 | 0.16 | 0.17 | 0.2 |  |  | 102 |  |  |  |  | 2.76 | 3.42
O=c1c(Cl)c(Cl)cnn1-c1ccccc1 [compound 257014] | 0.36 |  |  | 0.29 |  |  |  |  |  |  | 0.24 | 0.45 | 0.27 | 3.29 | 6.93
O=c1c(Br)c(Br)cnn1-c1ccccc1 [compound 257015] | 0.32 |  | 0.37 | 0.16 | 0.17 | 0.22 |  |  |  |  |  |  |  | 2.38 | 3.03
Cc1ccc(-n2ncc(Cl)c(Cl)c2=O)cc1 [compound 257016] | 0.47 |  | 0.54 | 0.32 | 0.29 | 0.38 |  |  |  |  |  |  |  | 3.29 | 6.43
COc1nn(-c2cccc(C)c2)c(=O)c(Cl)c1Cl [compound 257028] | 1.18 |  | 1.1 | 0.65 |  |  |  |  |  |  |  |  |  | 5.24 | 7.52

The next lines start with results.

IC50 (H1975; [1]) [µM] | IC50 (H1975; Homo sapiens, NCI-H1975, phenylfuran-2-carboxamide SAR summary, read-out: IC50(uM) 1975) [µM] | IC50 (H1118; [2]) [µM] | IC50 (H1975; [7]) [µM] | IC50 (H827; [8]) [µM] | IC50 (H1118; [9]) [µM] | Compound | inhibition at 10 µM (H1975; Homo sapiens, H1975, 10 μM compound in 1% DMSO (v/v), read-out: PRIMARY HTS [%] H1975 (percentage inhibition)) [%] | CONFIRMATION [%] 1975 (H1975; percentage inhibition, 10 μM compound in 1% DMSO (v/v)) [%] | inhibition at 10 µM (H1975; [3]) [%] | IC50 (H1975; dose response 10 M to 5 nM, IC50, read-out: Dose Response (uM) H1975) [µM] | IC50 (H827; [4]) [µM] | IC50 (H1118; [5]) [µM] | IC50 (H1118; [6]) [µM] | IC50 at 72 h (in vitro; CytoTox (uM) NHBE) [µM] | IC50 at 72 h (in vitro; CytoTox (uM) WI-38) [µM]
1.27 |  | 1.66 | 0.69 |  |  | O=c1c(Cl)c(Cl)cnn1-c1ccc(C(F)(F)F)cc1 [compound 267060] |  |  |  |  |  |  |  | 3.44 | > 10
0.31 |  | 0.4 | 0.37 |  |  | COc1cccc(-n2ncc(Cl)c(Cl)c2=O)c1 [compound 267061] |  |  |  |  |  |  |  | 1.7 | 3.91
0.47 |  | 0.67 | 0.46 |  |  | CCc1cccc(-n2ncc(Cl)c(Cl)c2=O)c1 [compound 267062] |  |  |  |  |  |  |  | 1.85 | 6.44
6.57 |  | 6.41 | 1.93 |  |  | CCCCc1cccc(-n2ncc(Cl)c(Cl)c2=O)c1 [compound 267063] |  |  |  |  |  |  |  | 5.34 | > 10
7.58 |  | > 10 | 0.71 |  |  | Cc1cc(-n2ncc(Cl)c(Cl)c2=O)ccc1Br [compound 267064] |  |  |  |  |  |  |  | 4.04 | > 10
> 10 |  | > 10 | 1.89 |  |  | Cc1cc(-n2ncc(Cl)c(Cl)c2=O)ccc1Cl [compound 267065] |  |  |  |  |  |  |  | > 10 | > 10
